Experimental data: patent publication US5516784A, “Anti-HIV (AIDS) agents” (Schering Corporation, priority 1994, dated 1996)
In brackets after ≈: the same amount, converted by molar mass.

Tested on: HIV-1, isolate III B
Experiment: Test 2: inhibition of the growth of HIV-1 in tissue culture cells (CEM-SS, syncytia formation)
Assay type: cell-based
Settings: Human immunodeficiency virus 1, 168 h, 7 days, read-out: HIVMIC IC50
Source text: TEST 2-INHIBITION OF THE GROWTH OF HIV-1 IN TISSUE CULTURE CELLS
This test measured the capability of the compounds to inhibit the growth of HIV-1 in tissue culture cells. CEM-SS cells (human T-lymphocyte derived tissue culture cells) were infected with HIV-1, isolate III B which was produced in tissue culture. After 7 days, the virus has killed the cells as monitored by extensive syncytia formation (cell fusion). The test measured the capability of the chemical synthetic compounds to prevent syncytia formation and cell death. CEM cells were grown at 37° C. in an atmosphere of 5% CO2. HIV isolate III B was prepared by growth in and crude purification from CEM cells. The chemical synthetic compound was added to 96 well microtiter plates and diluted in varying steps across the wells of the plate. Cells and virus were added to each well and the concentration of the chemical synthetic compound required to inhibit syncytia formation by 50% (the IC50) after 7 days was determined. The viability of CEM cells which are not infected with HIV-1 isolate III B was simultaneously determined by the MTT assay, as described in Mossman, J. Immunolog. Methods 65:55-63, 1983, which is herein incorporated by reference.

IC50 [µg/mL] | Compound
0.68 (≈ 1.05 µM) | CC(C)(C)NC(=O)c1ccccc1SC[C@@H](O)[C@H](CC1CCCCC1)NC(=O)[C@H](CC(N)=O)NC(=O)c1ccc2ccccc2n1 [Compound 78]
17.5 (≈ 30.3 µM) | CCC[C@H](NC(=O)[C@H](CC(N)=O)NC(=O)c1ccc2ccccc2n1)[C@H](O)COc1ccccc1C(=O)NC(C)(C)C [Compound 77]

Target: T1, HIV1 protease (Human immunodeficiency virus type 1 group M subtype B, UniProt P04585)
Experiment: Test 3: inhibition of proteolytic activity of HIV-1 protease by scintillation proximity assay (SPA)
Assay type: biochemical
Settings: SPA; room temperature, 40 minutes; read-out: Enzyme Assays (SPA) IC50
Source text: TEST 3-INHIBITION OF PROTEOLYTIC ACTIVITY OF HIV-1-PROTEASE AS DETERMINED BY SCINTILLATION […] ASSAY (SPA).
This is an alternative assay to test #1 and is used to determine the ability of compounds to inhibit the HIV1 protease activity. The SPA assay for HIV1 protease has been developed by Amersham Corporation, Arlington Heights, Ill., and is available for commercial use. In this system the substrate for HIV1 protease, AcN-(I^125)[…]SPA bead, is cleaved by the HIV1 protease at the Phe-Phe bond releasing the I^125 -labelled peptide fragment from the SPA bead. This event causes removal of detectable signal from the microsphere bead indicated by reduction in radioactivity (measured in CPM), which is proportional to the proteolytic activity. The substrate, and the HIV 1 protease were incubated in presence of synthetic compound in various dilutions at room temperature for 40 minutes, and the concentration of the compound required to inhibit the proteolytic activity by 50% (IC50) was determined.

IC50 [nM] | Compound
230 | CC(C)(C)NC(=O)c1ccccc1SC[C@@H](O)[C@H](CC1CCCCC1)NC(=O)[C@H](CC(N)=O)NC(=O)c1ccc2ccccc2n1 [Compound 78]
> 200 | CCC(C)C(NC(=O)c1ccc2ccccc2n1)C(=O)N[C@@H](Cc1ccccc1)[C@H](O)CSc1ccccc1C(=O)NC(C)(C)C (some centres unmarked) [Compound 39]
> 200 | CC(C)(C)NC(=O)CCSC[C@@H](O)[C@H](Cc1ccccc1)NC(=O)[C@H](CC(N)=O)NC(=O)c1ccc2ccccc2n1 [Compound 28]
280 | CC(C)(C)NC(=O)c1cc2ccccc2cc1OC[C@@H](O)[C@H](Cc1ccccc1)NC(=O)[C@H](CC(N)=O)NC(=O)c1ccc2ccccc2n1 [Compound 11]
> 200 | NC(=O)C[C@H](NC(=O)c1ccc2ccccc2n1)C(=O)N[C@@H](Cc1ccccc1)[C@@H](O)CSc1ccccc1C(=O)NC12CC3CC(CC(C3)C1)C2 [Compound 29]
> 500 | CC(C)(C)NC(=O)c1ccccc1OC[C@@H](O)[C@H](CCc1ccccc1)NC(=O)[C@H](CC(N)=O)NC(=O)c1ccc2ccccc2n1 [Compound 76]
> 200 | CC(C)(C)NC(=O)c1ccc(SC[C@@H](O)[C@H](Cc2ccccc2)NC(=O)[C@H](CC(N)=O)NC(=O)c2ccc3ccccc3n2)cc1 [Compound 24]
> 200 | CC(C)(C)NC(=O)c1ccccc1SC[C@@H](O)[C@H](Cc1ccccc1)NC(=O)[C@H](Cc1ccccc1)NC(=O)c1ccc2ccccc2n1 [Compound 34]
> 200 | CC(C)(C)NC(=O)c1ccc(SC[C@H](O)[C@H](Cc2ccccc2)NC(=O)[C@H](CC(N)=O)NC(=O)c2ccc3ccccc3n2)cc1 [Compound 23]
125 | CC(C)(C)NC(=O)c1ccccc1OC[C@@H](O)[C@H](Cc1ccccc1)NC(=O)[C@H](CC(N)=O)NC(=O)OCc1ccccc1 [IN 8]
> 200 | NC(=O)C[C@H](NC(=O)c1ccc2ccccc2n1)C(=O)N[C@@H](Cc1ccccc1)[C@@H](O)CSc1nc2ccccc2[nH]1 [Compound 22]
230 | CC(C)(C)NC(=O)c1ccc2ccccc2c1OC[C@@H](O)[C@H](Cc1ccccc1)NC(=O)[C@H](CC(N)=O)NC(=O)c1ccc2ccccc2n1 [Compound 12]
> 200 | NC(=O)C[C@H](NC(=O)c1ccc2ccccc2n1)C(=O)N[C@@H](Cc1ccccc1)[C@@H](O)CSC1CCCC1C(=O)Nc1ccccc1 (some centres unmarked) [Compound 14]

Same assay, conditions: read-out: Enzyme Assays (SPA) IC50

IC50 [nM] | Compound
55 | CC(C)(C)NC(=O)c1ccccc1OC[C@@H](O)[C@H](Cc1ccccc1)NC(=O)[C@H](CC(N)=O)NC(=O)c1ccc2c(c1)C(=O)c1ccccc1C2=O [Compound 70]

Target: T1, HIV1 protease
Experiment: Test 1: inhibition of proteolytic activity of HIV-1 protease (HPLC)
Assay type: biochemical
Design: proteolytic activity of HIV-1 protease
Settings: HPLC; HIV Substrate III; read-out: Enzyme Assays (HPLC) IC50
Method: TEST I-INHIBITION OF PROTEOLYTIC ACTIVITY OF HIV-1-PROTEASE
The ability of compounds of the invention to inhibit the proteolytic activity of HIV-1 protease was determined by using the method of Louis, et al., Biochem. Biophys. Res. Comm. 159:87-94, (1989), which is herein incorporated by reference. In using the method of Louis et al., HIV Substrate III, His-Lys-Ala-Arg-VaI-Leu-pNO2 Phe-Glu-Ala-Nle-Ser-NH2 purchased from Bachem Bioscience, Inc. Philadelphia, Pa. was used in place of the nonapeptide substrate […]amide.

IC50 [nM] | Compound
> 100 | CC(C)(C)NC(=O)c1ccccc1SC[C@H](O)[C@H](Cc1ccccc1)NC(=O)[C@H](CC(N)=O)NC(=O)c1ccccn1 [Compound 54]
> 100 | CC(C)(C)NC(=O)c1ccccc1SC[C@H](O)[C@H](Cc1ccccc1)NC(=O)[C@H](CC(N)=O)NC(=O)c1ccc[n+]([O-])c1 [Compound 57]
> 100 | CC(C)(C)NC(=O)c1ccccc1SC[C@H](O)[C@H](Cc1ccccc1)NC(=O)[C@H](CCC(N)=O)NC(=O)c1ccc2ccccc2n1 [Compound 48]
> 50 | NC(=O)C[C@H](NC(=O)c1ccc2ccccc2n1)C(=O)N[C@@H](Cc1ccccc1)[C@@H](O)CSc1ncccn1 [Compound 1]
> 100 | CC(C)(C)NC(=O)c1ccccc1SC[C@H](O)[C@H](Cc1ccccc1)NC(=O)[C@H](CC(N)=O)NC(=O)c1cccnc1O [Compound 58]
> 50 | NC(=O)C[C@H](NC(=O)c1ccc2ccccc2n1)C(=O)N[C@@H](Cc1ccccc1)[C@H](O)CSc1ccccc1C(=O)NC12CC3CC(CC(C3)C1)C2 [Compound 30]
> 100 | CC(C)(C)NC(=O)c1ccccc1SC[C@H](O)[C@H](Cc1ccccc1)NC(=O)[C@H](Cc1c[nH]c2ccccc12)NC(=O)OC(C)(C)C [IN 6]
> 500 | NC(=O)C[C@H](NC(=O)c1ccc2ccccc2n1)C(=O)N[C@@H](Cc1ccccc1)[C@@H](O)CSC1CCCC1C(=O)Nc1ccccc1 (some centres unmarked) [Compound 18]
> 50 | CC(C)(C)NC(=O)c1ccccc1SC[C@H](O)[C@H](Cc1ccccc1)NC(=O)[C@@H]1CCCN1C(=O)c1ccc2ccccc2n1 [Compound 32]
> 100 | CC(C)(C)NC(=O)c1ccccc1SC[C@H](O)[C@H](Cc1ccccc1)NC(=O)[C@H](CC(N)=O)NC(=O)c1cccc[n+]1[O-] [Compound 55]
> 100 | CN(C)C(=O)C[C@H](NC(=O)c1ccc2ccccc2n1)C(=O)N[C@@H](Cc1ccccc1)[C@@H](O)CSc1ccccc1C(=O)NC(C)(C)C [Compound 41]
> 100 | CC(C)(C)NC(=O)c1ccccc1SC[C@H](O)[C@H](Cc1ccccc1)NC(=O)[C@H](CC(N)=O)NC(=O)c1ccc(O)cn1 [Compound 56]
> 500 | CC(C)(C)NC(=O)c1ccccc1OC[C@@H](O)[C@@H](NC(=O)[C@H](CC(N)=O)NC(=O)c1ccc2ccccc2n1)c1ccccc1 [Compound 75]
> 100 | CC(C)(C)NC(=O)c1ccccc1S(=O)(=O)C[C@H](O)[C@H](Cc1ccccc1)NC(=O)[C@H](CCS(C)(=O)=O)NC(=O)c1ccc2ccccc2n1 [Compound 45]
> 100 | CSCC[C@H](NC(=O)c1ccc2ccccc2n1)C(=O)N[C@@H](Cc1ccccc1)[C@@H](O)CSc1ccccc1C(=O)NC(C)(C)C [Compound 44]
> 500 | CCCCNC(=O)c1ccccc1S(=O)(=O)C[C@H](O)[C@H](Cc1ccccc1)NC(=O)[C@H](CC(N)=O)NC(=O)c1ccc2ccccc2n1 [Compound 9]
> 5 | CC(C)(C)NC(=O)c1ccccc1SC[C@H](O)[C@H](Cc1ccccc1)NC(=O)[C@H](Cc1c[nH]c2ccccc12)NC(=O)c1ccc2ccccc2n1 [Compound 51]
> 100 | CCn1cc(C(=O)N[C@@H](CC(N)=O)C(=O)N[C@@H](Cc2ccccc2)[C@@H](O)CSc2ccccc2C(=O)NC(C)(C)C)c(=O)c2ccc(C)nc21 [Compound 53]
> 100 | CSCC[C@H](NC(=O)OC(C)(C)C)C(=O)N[C@@H](Cc1ccccc1)[C@@H](O)CSc1ccccc1C(=O)NC(C)(C)C [IN 5]
> 500 | CC(C)(C)NC(=O)c1ccccc1SC[C@H](O)[C@H](Cc1ccccc1)NC(=O)[C@H](Cc1ccccc1)NC(=O)c1ccc2ccccc2n1 [Compound 33]
> 500 | NC(=O)C[C@H](NC(=O)c1ccc2ccccc2n1)C(=O)N[C@@H](Cc1ccccc1)[C@@H](O)CSC1CCCC1C(=O)Nc1ccccc1 (some centres unmarked) [Compound 16]
> 500 | CC(C)(C)NC(=O)CCSC[C@H](O)[C@H](Cc1ccccc1)NC(=O)[C@H](CC(N)=O)NC(=O)c1ccc2ccccc2n1 [Compound 27]
> 100 | CC(C)(C)NC(=O)c1ccccc1SC[C@H](O)[C@H](Cc1ccccc1)NC(=O)[C@@H](CC(N)=O)NC(=O)c1ccc2ccccc2n1 [Compound 47]
> 100 | CC(C)[C@H](NC(=O)OC(C)(C)C)C(=O)N[C@@H](Cc1ccccc1)[C@@H](O)CSc1ccccc1C(=O)NC(C)(C)C [IN 4]
> 100 | COc1ccc(C[C@H](NC(=O)c2ccc3ccccc3n2)C(=O)N[C@@H](Cc2ccccc2)[C@@H](O)CSc2ccccc2C(=O)NC(C)(C)C)cc1 [Compound 43]
> 100 | CC(C)(C)NC(=O)c1ccccc1SC[C@H](O)[C@H](Cc1ccccc1)NC(=O)[C@H](CCC(N)=O)NC(=O)OC(C)(C)C [IN 3]
> 100 | COc1ccc(C[C@H](NC(=O)OC(C)(C)C)C(=O)N[C@@H](Cc2ccccc2)[C@@H](O)CSc2ccccc2C(=O)NC(C)(C)C)cc1 [IN 2]

Same assay, conditions: intermediate compound; read-out: IC50 in Test 1, Inhibition of Proteolytic Activity of HIV-1-Protease

IC50 [nM] | Compound
3000 | CC(C)(C)NC(=O)c1ccccc1SCC(O)C(Cc1ccccc1)NC(=O)OC(C)(C)C (centres unmarked)
